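Briefly, cells in 96-well plates were exposed to five compound concentrations for 48 h, and endpoints were estimated by linear interpolation. Abbreviation: GI50, concentration required for 50% inhibition of growth. At the TGI there is no net growth.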
How the values were obtained:
Experiment in all cases: DTP human tumour cell line panel, 48 h
HCT-15 colon = system: HCT-15 colon
786-0 renal = system: 786-0 renal
CAKI-1 renal = system: CAKI-1 renal
UACC-62 melanoma = system: UACC-62 melanoma
NCI-H522 lung = system: NCI-H522 lung
OVCAR-4 ovarian = system: OVCAR-4 ovarian
IGROV1 ovarian = system: IGROV1 ovarian
SF-295 CNS = system: SF-295 CNS
RPMI-8226 leukemia = system: RPMI-8226 leukemia
SR leukemia = system: SR leukemia

Row | SMILES | GI50 (HCT-15 colon) [µM] | TGI (HCT-15 colon) [µM] | GI50 (786-0 renal) [µM] | TGI (786-0 renal) [µM] | GI50 (CAKI-1 renal) [µM] | TGI (CAKI-1 renal) [µM] | GI50 (UACC-62 melanoma) [µM] | TGI (UACC-62 melanoma) [µM] | GI50 (NCI-H522 lung) [µM] | TGI (NCI-H522 lung) [µM] | GI50 (OVCAR-4 ovarian) [µM] | TGI (OVCAR-4 ovarian) [µM] | GI50 (IGROV1 ovarian) [µM] | TGI (IGROV1 ovarian) [µM] | TGI (SF-295 CNS) [µM] | TGI (RPMI-8226 leukemia) [µM] | GI50 (SR leukemia) [µM] | TGI (SR leukemia) [µM] | GI50 (SF-295 CNS) [µM] | GI50 (RPMI-8226 leukemia) [µM]
1 | C=C1C(=O)O[C@@H]2[C@@H]3O[C@@](C)(CC/C=C(\C)CCC[C@@H]2C)[C@H](O)C[C@@H]13 | 1.64 | 4.53 | 7.02 | 20.3 | 1.73 | 4.5 | 2.05 | 5.11 | 2.11 | 4.5 | 2.63 | 11.7 | 2.06 | 5.78 | 27.6 | > 100 |  |  |  | 
2 | CCN(CC)CCn1c(=N)n(CC(O)c2ccc(Cl)c(Cl)c2)c2ccccc21 (stereo not drawn) | 4.02 | 15.1 | 10.9 | 23.1 | 11.8 | 25.1 | 1.94 | 3.89 |  |  | 10.6 | 24.3 | 5.87 | 20.6 | 24.1 | 8.02 | 2.12 | 5.56 | 8.87 | 2.72
3 | COc1ccc(C2SC(N)=Nc3c2c(C)nn3C(=O)c2ccncc2)cc1 (stereo not drawn) |  | > 100 |  | > 100 |  |  |  | > 100 |  |  |  | > 100 |  | > 100 | > 100 | > 100 |  | 73 |  | 
4 | O=C(CC1Sc2ccccc2NC1=O)Nc1cccc(Cl)c1 (stereo not drawn) |  | > 100 |  | > 100 |  | > 100 |  | > 100 |  |  |  | > 100 |  | > 100 | > 100 | 69.6 |  | 97.5 |  | 
5 | CCCOC(=O)C1CCC(=O)N1C(=O)C(Cl)Cl (stereo not drawn) |  | > 100 |  | > 100 |  | > 100 |  | > 100 |  | > 100 |  | > 100 |  | > 100 | > 100 | > 100 |  |  |  | 
6 | CN(C)CCCn1cnc2ncccc2c1=O |  |  |  | > 100 |  | > 100 |  | > 100 |  | > 100 |  | > 100 |  | > 100 | > 100 |  |  | > 100 |  | 
7 | CCCCNC(=S)Nn1c(-c2ccccc2)nc2ccccc2c1=O |  | > 100 |  | > 100 |  | > 100 |  | > 100 |  | > 100 |  | > 100 |  | > 100 | > 100 | > 100 |  |  |  | 
8 | CCc1ccc(Cc2ccc(CC)c(NC(=O)C(=O)Cc3nc4ccccc4nc3C)c2CC)c(CC)c1NC(=O)C(=O)Cc1nc2ccccc2nc1C |  | > 100 |  | > 100 |  | > 100 |  | > 100 |  | > 100 |  | > 100 |  | > 100 |  | > 100 |  |  |  | 
9 | CC(=O)NNc1nc(C)c(C(/C=C/c2ccc(/C=C/C(=N\NC(=O)c3ccncc3)c3sc(NNC(C)=O)nc3C)cc2)=N/NC(=O)c2ccncc2)s1 |  | > 100 |  | > 100 |  | > 100 |  | > 100 |  |  |  |  |  | > 100 | > 100 | > 100 |  |  |  | 
10 | COCCNC(=O)C1C(=O)N(CCOC)C(=O)/C1=N/N (stereo not drawn) |  | > 100 |  | > 100 |  | > 100 |  | > 100 |  | > 100 |  |  |  | > 100 | > 100 | > 100 |  | > 100 |  | 
11 | CN(NC(=O)/C(=C/c1ccc(O)cc1)NC(=O)c1ccccc1)c1ccnc2cc(Cl)ccc12 |  |  |  | 35.8 |  | 33.8 |  | 31.8 |  | 60.7 |  | 33.6 |  | 34.1 | 32.3 | 40.7 |  | 10.4 |  | 
12 | CCOC(=O)C(C(=O)c1ccccc1-c1ccccc1C(=O)O)=P(c1ccccc1)(c1ccccc1)c1ccccc1 |  | 74.8 |  | > 100 |  |  |  | 33 |  |  |  | 43.6 |  | 47.3 | 88.8 | 78.9 |  | 85.1 |  | 
13 | CN1CCC(O)C(CNC23CC4CC(CC(C4)C2)C3)C1 (stereo not drawn) |  |  |  | > 100 |  | > 100 |  | > 100 |  | > 100 |  | > 100 |  |  | > 100 |  |  | > 100 |  | 
14 | CC(=O)OC1COC(N2C(=O)C(=O)c3c(C)cc(Cl)nc32)C(OC(C)=O)C1OC(C)=O (stereo not drawn) |  | > 100 |  | > 100 |  | > 100 |  | > 100 |  |  |  | > 100 |  | > 100 | > 100 | > 100 |  | > 100 |  | 
15 | C1=C[C@@H]2c3ccc4cnccc4c3NC[C@@H]2C1 |  | > 100 |  | > 100 |  |  |  | > 100 |  |  |  |  |  | > 100 | > 100 | > 100 |  | > 100 |  | 
16 | CC(C)Oc1cc(OCC(=O)O)cc(C(=O)N(CCC(N)=O)C(=O)Nc2ccc(C(=O)O)cc2OC(C)C)c1 | > 100 | > 100 | > 100 | > 100 |  |  | > 100 | > 100 | > 100 | > 100 | > 100 | > 100 | > 100 | > 100 | > 100 | > 100 | > 100 | > 100 | > 100 | > 100
17 | COC(=O)C1=Cc2cc3c(cc2[C@H](c2ccc4c(c2)OCO4)C1C(=O)OC)OCO3 (stereo partly drawn) |  | > 100 |  | > 100 |  | > 100 |  | > 100 |  |  |  | > 100 |  | > 100 | > 100 | > 100 |  | > 100 |  | 
18 | CCS[C@H]1NC(=O)C1[C@H](C)O[Si](C)(C)C(C)(C)C (stereo partly drawn) |  | > 100 |  | > 100 |  | > 100 |  | > 100 |  |  |  | > 100 |  | > 100 | > 100 | > 100 |  |  |  | 
19 | O=C(Nc1ccc(Cl)c(Cl)c1)Nc1ccc(Cl)c([N+](=O)[O-])c1 | 0.845 | 3.56 | 1.49 | 5.21 |  |  | 1.13 | 4.15 | 0.996 | 4.9 | 0.768 | 8.01 | 1.61 | 6.4 | 2.54 | 9.47 | 2.58 | > 25 | 0.688 | 0.895
20 | NC(=O)C/C=C/CC(N)=O |  | > 100 |  | > 100 |  | > 100 |  | > 100 |  | > 100 |  | > 100 |  | > 100 | > 100 | > 100 |  |  |  | 

From PubChem BioAssay (NCI)
